Legend:
[1] = tested on: ulcers in rats at the stomach level; assay: Anti-ulcer activity, Shay method (pylorus ligature in rats); assay type: in vivo; settings: oral, about 16 hours after treatment
From the text: (1) Determination of Anti-Ulcer Activity
The method used is described by SHAY et al. in Gastroenterology, 5, 43 (1945).
The Shay method consists of inducing ulcers in rats at the stomach level by ligature of the pylorus.
The animals are anesthetized with ether. A longitudinal incision is made about 1 cm below the sternum, the glandular part of the stomach and the duodenum are exposed, and a ligature is placed several mm below the pylorus. The muscular sheet is left as it is, and the skin is sutured with two clips.
As soon as possible afterwards, the animals receive the dispersive or the substance to be studied via the mouth in a volume of 0.5 ml/100 g and are kept without food or drink until sacrificed by carotid bleeding, which takes place about 16 hours after the treatment.
Before removing the stomach, a ligature is placed above the cardia.
The gastric liquid is collected in order to measure the pH.
The stomach is then opened along the major curvature, rinsed with physiological serum, and spread out on millimeter paper to be examined under a binocular magnifier.
The severity of the lesions is evaluated macroscopically and graded from 0 to 4 for each stomach.
The mean intensity of ulcerations is determined for each group of rats, and the protection is calculated by taking the ratio of the mean index of the treated group to the mean index of the control group.
The value of the gastric pH for the treated and control animals are likewise determined.

[2] = Determination of acute toxicity (LD50, oral, mice); settings: mouse, in vivo, oral administration
Method: (2) Determination of Acute Toxicity
The lethal dose, LD50, of the compounds of Examples 1-8 was evaluated in mice after oral administration.

[3] = Rattus norvegicus, 0.8 mg/kg, read-out: Ulcerations % of protection with respect to controls
[4] = Rattus norvegicus, 4 mg/kg, read-out: Ulcerations % of protection with respect to controls
[5] = Rattus norvegicus, 20 mg/kg, read-out: Ulcerations % of protection with respect to controls
[6] = Rattus norvegicus, 0.4 mg/kg, read-out: Ulcerations % of protection with respect to controls
[7] = Rattus norvegicus, 2 mg/kg, read-out: Ulcerations % of protection with respect to controls
[8] = Rattus norvegicus, 10 mg/kg, read-out: Ulcerations % of protection with respect to controls
[9] = Rattus norvegicus, 50 mg/kg, read-out: Ulcerations % of protection with respect to controls

| SMILES | inhibition in vivo at 4 mg/kg [1, 4] [%] | inhibition in vivo at 20 mg/kg [1, 5] [%] | pH of gastric liquid, treated animals ([1]; 4 mg/kg) | pH of gastric liquid, treated animals ([1]; 20 mg/kg) | LD50 [2] [mg/kg] | inhibition in vivo at 2 mg/kg [1, 7] [%] | inhibition in vivo at 10 mg/kg [1, 8] [%] | pH of gastric liquid, treated animals ([1]; 2 mg/kg) | pH of gastric liquid, treated animals ([1]; 10 mg/kg) | other results |
| --- | --- | --- | --- | --- | --- | --- | --- | --- | --- | --- |
| COc1ccc(C(=O)/C=C/C(=O)O)cc1OC [Example 1, (E) 4-(3,4-dimethoxyphenyl)-4-oxo-2-butenoic acid] | 83 | 100 | 2.6 | 4.3 | ~500 | – | – | – | – | inhibition in vivo at 0.8 mg/kg [1, 3]: 0%; pH of gastric liquid, treated animals ([1]; 0.8 mg/kg): 2.9 |
| O=C(O)/C=C/C(=O)c1ccc(Cl)cc1 [Example 2, (E) 4-(4-chlorophenyl)-4-oxo-2-butenoic acid] | – | – | – | – | ~200 | – | – | – | – | inhibition in vivo at 1 mg/kg ([1]; Rattus norvegicus, 1 mg/kg, read-out: Ulcerations % of protection with respect to controls): 0%; inhibition in vivo at 5 mg/kg ([1]; Rattus norvegicus, 5 mg/kg, read-out: Ulcerations % of protection with respect to controls): 57%; inhibition in vivo at 25 mg/kg ([1]; Rattus norvegicus, 25 mg/kg, read-out: Ulcerations % of protection with respect to controls): 100%; pH of gastric liquid, treated animals ([1]; 1 mg/kg): 3.0; pH of gastric liquid, treated animals ([1]; 5 mg/kg): 3.0; pH of gastric liquid, treated animals ([1]; 25 mg/kg): 5.6 |
| O=C(O)/C=C/C(=O)c1ccc(F)cc1 [Example 3, (E) 4-(4-fluorophenyl)-4-oxo-2-butenoic acid] | – | – | – | – | ~300 | 43 | 100 | 2.8 | 4.0 | inhibition in vivo at 0.4 mg/kg [1, 6]: 20%; pH of gastric liquid, treated animals ([1]; 0.4 mg/kg): 3.1 |
| O=C(O)/C=C/C(=O)c1ccc(Cl)c(Cl)c1 [Example 4, (E) 4-(3,4-dichlorophenyl)-4-oxo-2-butenoic acid] | 14 | 71 | 3.1 | 4.1 | ~500 | – | – | – | – | – |
| O=C(O)/C=C/C(=O)c1ccccc1[N+](=O)[O-] [Example 5, (E) 4-(2-nitrophenyl)-4-oxo-2-butenoic acid] | 19 | 100 | 3.3 | 4.3 | ~500 | – | – | – | – | – |
| O=C(O)/C=C/C(=O)c1ccc(C(F)(F)F)cc1 [Example 6, (E) 4-(4-trifluoromethylphenyl)-4-oxo-2-butenoic acid] | 55 | 67 | 2.3 | 2.8 | ~600 | – | – | – | – | inhibition in vivo at 0.8 mg/kg [1, 3]: 20%; inhibition in vivo at 100 mg/kg ([1]; Rattus norvegicus, 100 mg/kg, read-out: Ulcerations % of protection with respect to controls): 98%; pH of gastric liquid, treated animals ([1]; 0.8 mg/kg): 1.4; pH of gastric liquid, treated animals ([1]; 100 mg/kg): 6.3 |
| COc1ccc(OC)c(C(=O)/C=C/C(=O)O)c1 [Example 7, (E) 4-(2,5-dimethoxyphenyl)-4oxo-2-butenoic acid] | – | – | – | – | ~300 | 93 | 88 | 2.8 | 3.0 | inhibition in vivo at 0.4 mg/kg [1, 6]: 0%; inhibition in vivo at 50 mg/kg [1, 9]: 100%; pH of gastric liquid, treated animals ([1]; 0.4 mg/kg): 3.0; pH of gastric liquid, treated animals ([1]; 50 mg/kg): 4.2 |
| O=C(O)/C=C/C(=O)c1ccc2c(c1)OCO2 [Example 8, (E) 4-(3,4-methylenedioxyphenyl)-4-oxo-2-butenoic acid] | – | – | – | – | ~400 | 33 | 60 | 3.2 | 3.3 | inhibition in vivo at 50 mg/kg [1, 9]: 100%; pH of gastric liquid, treated animals ([1]; 50 mg/kg): 5.4 |
